In patent publication US20260325605A1, “INHIBITORS” (Zealand Pharma A/S, priority 2022, published 2026):

Columns and labels:
Kv1.3 = target: T1, Kv1.3 (Homo sapiens, UniProt P22001); assay: Patch clamp assay (QPatch), Kv1.3; type: cell-based; details: CHO cells stably expressing human Kv1.3, read-out: Potency IC50, Kv1.3
T1 construct: expressed in transfected cells
Procedure: Selectivity of Kv1.3 inhibitor peptides for Kv1.3 over other potassium ion channels (Kv1.1, Kv1.2 and Kv1.6) was determined using patch clamp assay.
Chinese Hamster Ovary (CHO) cell lines stably expressing exogenous human α-subunits of each potassium ion channel were grown and passaged under standard culture conditions.
The automated, chip-based planar patch clamp device QPatch® was used to quantitate the ionic currents. All recordings were made in the conventional whole-cell configuration after establishment of gigaohm seals. […] During experiments 0.1% (v/v) BSA was included as a vehicle in all external recording solutions. Currents were elicited from a holding potential of −80 mV using a voltage protocol, which shifted the voltage to 30 mV for 500 ms every 15 s.
Concentration-response relationships were established by cumulatively applying seven escalating concentrations of test sample to an individual cell with a recording period of 2 min per compound application.
The efficacy was determined as the mean charge for the last three sweeps at the end of each concentration application period from the cursor positions. The percent inhibition for each test dose application period was calculated as the reduction in mean cursor value (charge) relative to the cursor value measured at the end of the vehicle period and used to calculate the IC50 from the concentration response curve.

[1] = test system: T-cell activation in rat whole blood; assay: Example 4: IL-17A release in thapsigargin stimulated rat whole blood; type: cell-based, rat (Lewis or Sprague-Dawley); details: 24 Hr, at least 2 replicates, unit inferred, read-out: IC50 (inhibition of IL-17A release)
Excerpt: Rat whole blood was used to assess the potency of Kv1.3 inhibitor peptides on T-cell activation as determined by IL-17A release after stimulation with thapsigargin. Addition of thapsigargin results in activation of a signalling cascade ending up in activation of T cell proliferation and cytokine production where the Kv1.3 ion channel plays a key role, so activity of Kv1.3 inhibitors in primary cells can be measured in this experimental system.
Rat whole blood was obtained from healthy, naïve Lewis or Sprague-Dawley rats that were terminally bleed from the heart using Sodium Heparin blood sampling tubes for collection. Peptides were diluted to 4× final testing concentrations in assay buffer (DMEM+GlutaMAX), GlutaMAX is a medium comprising 3.97 mM L-alanine-L-glutamine (Gibco Cat #61965026) supplemented with 25 mM HEPES buffer, 1 mM Sodium Pyruvate, 100 units/ml Penicillin, 100 μg/ml Streptomycin and 0.05% Casein from bovine milk (Sigma-Aldrich)) and 25 μl was added to wells of a 96 well plate. Then 50 μl whole rat blood was added and incubated for minimum 5 minutes at room temperature to allow compound binding. Then 25 μl 40 μM thapsigargin diluted in assay buffer was added to all wells of the assay plates to activate the cells, followed by incubation for 24 Hr at 37° C./5% CO2 in a humidified box. The assay plates were centrifuged for 10 min at 300 g at 4° C. and the supernatants were transferred to new plates. The concentrations of IL-17A released to the supernatants were measured using a Rat IL-17A ELISA Kit (Abcam Cat #ab214028) as recommended by the manufacturer. Samples were diluted 2.5-fold by transferring 20 μl of the supernatants to wells on ELISA plates containing 30 μl buffer 75BS from the detection kit.
Data from peptides eliciting an inhibition of IL-17A were normalised relative to full thapsigargin activation (no inhibitor added) and no activation controls (addition of assay buffer instead of thapsigargin) to calculate the IC50 from the concentration response curve.
Results are shown in Table 5, expressed as IC50, with standard deviation (IC50_SD). All values are derived from at least 2 replicates. The biological effects ex vivo show a correlation with the potency of the peptides.

Kv1.6 = target: T2, Kv1.6 (Homo sapiens, UniProt P17658); assay: Patch clamp assay (QPatch), Kv1.6; type: cell-based; details: for IC50: QPatch, CHO cells stably expressing human Kv1.6, read-out: Potency IC50, Kv1.6; for Selectivity Kv1.6/Kv1.3: ratio of IC50 Kv1.6/Kv1.3
T2 construct: expressed in transfected cells
T2 sequence (P17658 whole entry): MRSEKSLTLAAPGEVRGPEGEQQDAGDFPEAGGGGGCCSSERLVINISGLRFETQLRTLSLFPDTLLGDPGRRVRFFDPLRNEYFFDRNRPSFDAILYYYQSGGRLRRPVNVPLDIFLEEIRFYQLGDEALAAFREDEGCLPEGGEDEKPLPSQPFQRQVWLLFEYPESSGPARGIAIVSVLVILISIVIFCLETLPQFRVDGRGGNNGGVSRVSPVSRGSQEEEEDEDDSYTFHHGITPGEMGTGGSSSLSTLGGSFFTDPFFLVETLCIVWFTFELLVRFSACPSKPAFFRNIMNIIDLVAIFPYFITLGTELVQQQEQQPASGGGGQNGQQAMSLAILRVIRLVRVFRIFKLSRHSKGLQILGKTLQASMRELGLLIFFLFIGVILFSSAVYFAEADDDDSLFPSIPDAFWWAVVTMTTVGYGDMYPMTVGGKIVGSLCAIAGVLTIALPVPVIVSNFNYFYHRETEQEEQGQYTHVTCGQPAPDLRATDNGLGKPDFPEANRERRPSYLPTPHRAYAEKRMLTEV

Kv1.2 = target: T3, Kv1.2 (Homo sapiens, UniProt P16389); assay: Patch clamp assay (QPatch), Kv1.2; type: cell-based; details: for IC50: QPatch, CHO cells stably expressing human Kv1.2, read-out: Potency IC50, Kv1.2; for Selectivity Kv1.2/Kv1.3: ratio of IC50 Kv1.2/Kv1.3
T3 construct: expressed in transfected cells
T3 sequence (P16389 whole entry): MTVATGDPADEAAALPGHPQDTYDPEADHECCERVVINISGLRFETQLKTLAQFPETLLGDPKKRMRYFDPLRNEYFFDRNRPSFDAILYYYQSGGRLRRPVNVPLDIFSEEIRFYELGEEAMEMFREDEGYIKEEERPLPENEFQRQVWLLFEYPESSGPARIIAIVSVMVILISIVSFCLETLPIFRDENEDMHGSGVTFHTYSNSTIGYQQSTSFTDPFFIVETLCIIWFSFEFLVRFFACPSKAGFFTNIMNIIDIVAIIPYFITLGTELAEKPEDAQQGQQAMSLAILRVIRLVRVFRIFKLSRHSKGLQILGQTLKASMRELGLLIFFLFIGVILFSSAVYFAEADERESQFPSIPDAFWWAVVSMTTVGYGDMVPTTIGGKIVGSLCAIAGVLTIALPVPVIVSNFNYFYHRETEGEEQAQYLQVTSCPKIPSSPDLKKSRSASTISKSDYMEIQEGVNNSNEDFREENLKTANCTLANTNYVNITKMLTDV

Kv1.1 = target: T4, Kv1.1 (Homo sapiens, UniProt Q09470); assay: Patch clamp assay (QPatch), Kv1.1; type: cell-based; details: for IC50: QPatch, CHO cells stably expressing human Kv1.1, read-out: Potency IC50, Kv1.1; for Selectivity Kv1.1/Kv1.3: ratio of IC50 Kv1.1/Kv1.3
T4 construct: expressed in transfected cells
T4 sequence (Q09470 whole entry): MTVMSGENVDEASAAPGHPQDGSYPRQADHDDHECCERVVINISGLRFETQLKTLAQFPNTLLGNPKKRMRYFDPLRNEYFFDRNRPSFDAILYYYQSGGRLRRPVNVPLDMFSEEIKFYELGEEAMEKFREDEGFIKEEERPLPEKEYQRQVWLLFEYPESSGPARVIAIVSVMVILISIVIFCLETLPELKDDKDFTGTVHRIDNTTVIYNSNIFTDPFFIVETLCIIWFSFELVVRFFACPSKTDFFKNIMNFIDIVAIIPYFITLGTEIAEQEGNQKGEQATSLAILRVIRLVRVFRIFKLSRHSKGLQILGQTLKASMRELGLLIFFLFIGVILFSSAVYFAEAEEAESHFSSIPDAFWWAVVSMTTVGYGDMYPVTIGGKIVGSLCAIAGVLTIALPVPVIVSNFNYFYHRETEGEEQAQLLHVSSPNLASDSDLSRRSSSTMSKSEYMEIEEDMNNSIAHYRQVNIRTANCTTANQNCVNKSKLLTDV

T1 sequence (P22001 whole entry): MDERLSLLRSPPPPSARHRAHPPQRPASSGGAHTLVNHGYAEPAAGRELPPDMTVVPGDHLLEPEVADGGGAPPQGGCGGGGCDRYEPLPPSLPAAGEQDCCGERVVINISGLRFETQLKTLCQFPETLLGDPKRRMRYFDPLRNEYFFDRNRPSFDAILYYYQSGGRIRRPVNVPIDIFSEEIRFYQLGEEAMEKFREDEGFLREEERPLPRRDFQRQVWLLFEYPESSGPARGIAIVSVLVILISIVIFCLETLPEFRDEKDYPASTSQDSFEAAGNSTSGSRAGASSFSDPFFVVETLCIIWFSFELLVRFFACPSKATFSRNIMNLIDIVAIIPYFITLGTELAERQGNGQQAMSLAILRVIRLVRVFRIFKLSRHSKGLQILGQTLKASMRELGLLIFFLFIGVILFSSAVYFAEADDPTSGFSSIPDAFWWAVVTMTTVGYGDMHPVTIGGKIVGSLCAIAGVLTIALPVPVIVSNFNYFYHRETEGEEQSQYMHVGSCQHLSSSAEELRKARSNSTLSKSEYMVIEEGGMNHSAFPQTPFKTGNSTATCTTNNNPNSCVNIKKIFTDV

Row | Substance | IC50 (Kv1.3) | IC50 [1] | IC50 (Kv1.6) | Selectivity Kv1.6/Kv1.3 (Kv1.6) | IC50 (Kv1.2) | Selectivity Kv1.2/Kv1.3 (Kv1.2) | IC50 (Kv1.1) | Selectivity Kv1.1/Kv1.3 (Kv1.1)
1 | H-NMDMRC(1)SASREC(2)KQKC(3)LKAIGSIFGKC(1)MNKKC(2)KC(3)YPR-NH2 [Peptide 28] | 0.12 nM | 0.68 nM | 206 nM | 1778 | 11 nM | 94 | > 3000 nM | >25900
2 | H-NMDMRC(1)SASVEC(2)KQKC(3)LKAIESIFGKC(1)MNKKC(2)KC(3)YPR-NH2 [Peptide 23] | 0.29 nM | 2.8 nM | > 3000 nM | >10200 | 181 nM | 615 | > 3000 nM | >10200
3 | H-N[Nle]D[Nle]RC(1)SHSVEC(2)KQKC(3)LKAIGSIFGKC(1)[Nle]NKKC(2)KC(3)YPR-NH2 [Peptide 48] | 0.54 nM | 0.83 nM | 609 nM | 1134 | 772 nM | 1438 | > 3000 nM | >5600
4 | Ac-C(1)SASVEC(2)KQKC(3)LKAIGSIFGKC(1)[Nle]NKKC(2)KC(3)YPR-NH2 [Peptide 109] | 0.24 nM | 0.88 nM | > 3000 nM | >12400 | 384 nM | 1591 | > 3000 nM | >12400
5 | H-NMDMRC(1)SASVEC(2)KQKC(3)LKAIGSIFGKC(1)MNKKC(2)HC(3)YPR-NH2 [Peptide 38] | 0.19 nM | 0.77 nM | > 3000 nM | >16100 | 338 nM | 1816 | > 3000 nM | >16100
6 | H-P[Nle]E[Nle]RC(1)SASVEC(2)KQKC(3)LAAIGSIFGKC(1)[Nle]NKKC(2)KC(3)YPR-NH2 [Peptide 101] | 0.18 nM | 0.34 nM | > 3000 nM | >16200 | 311 nM | 1689 | > 3000 nM | >16200
7 | H-S[Nle]DERC(1)SASVEC(2)KQKC(3)LKAIGSIFGKC(1)MNKKC(2)KC(3)YPR-NH2 [Peptide 78] | 0.28 nM | 0.55 nM | > 3000 nM | >10600 | 122 nM | 430 | > 3000 nM | >10600
8 | H-NMDMRC(1)SASVEC(2)KQKC(3)LKAIRSIFGKC(1)MNKKC(2)KC(3)YPR-NH2 [Peptide 22] | 0.22 nM | 0.82 nM | 626 nM | 2851 | 57 nM | 259 | > 3000 nM | >13700
9 | H-NMDMRC(1)SASVEC(2)KEKC(3)LKAIGSIFGKC(1)MNKKC(2)KC(3)YPR-NH2 [Peptide 32] | 0.28 nM | 0.86 nM | > 3000 nM | >10800 | 179 nM | 648 | > 3000 nM | >10800
10 | H-NMDMRC(1)SASVEC(2)KQKC(3)LKAIGSIFGKC(1)MNGKC(2)KC(3)YPR-NH2 [Peptide 37] | 0.31 nM | 1.2 nM | > 3000 nM | >9700 | 439 nM | 1422 | > 3000 nM | >9700
11 | H-S[Nle]D[Nle]RC(1)SASVEC(2)GQKC(3)LKAIGSIFGKC(1)MNKKC(2)KC(3)YPR-NH2 [Peptide 73] | 0.11 nM | 0.3 nM | > 3000 nM | >27700 | 373 nM | 3438 | > 3000 nM | >27700
